Where two headings read alike, the source gives them in different places.

Experimental findings from patent publication US20070213359A1 (ACADIA Pharmaceuticals Inc., priority 2005, published 2007) are described below.

In assay [1] the target is T1, GHSR1a receptor (Homo sapiens, UniProt Q92847).
T1 construct: expressed in transfected cells; host or cells: HEK293 (membranes)
Kind of assay: 125I-Ghrelin binding assay. The conditions noted are these: displacement of 125I-ghrelin (0.053 nM), membranes of HEK293 cells transfected with GHSR1a, Cheng-Prussoff, '—' not defined. On the technique in general: In a radioligand displacement assay an active substance lowers the binding of a labelled ligand.

The target of assay [2] is Ghrelin receptor (Homo sapiens, UniProt Q92847). Kind of assay: Receptor Selection and Amplification Technology (R-SAT) assay. The conditions noted are these: for IC50: '—' not defined (nd used separately), read-out: RSAT pIC50 (converted); for Emax: read-out: RSAT Eff(%). It is filed as cell-based. On the set-up: expressed in transfected cells; host or cells: NIH3T3.
[3] abbreviates: read-out: Binding pKi (converted).
The mark [4] stands for this setting: negative logarithm of ligand concentration causing 50% inhibition of constitutive receptor response, transfected NIH3T3 cells.
The mark [5] stands for this setting: percent inhibition at saturating ligand, normalized to reference ligand Substance P analog = 100%.

T1 sequence (Q92847 whole entry): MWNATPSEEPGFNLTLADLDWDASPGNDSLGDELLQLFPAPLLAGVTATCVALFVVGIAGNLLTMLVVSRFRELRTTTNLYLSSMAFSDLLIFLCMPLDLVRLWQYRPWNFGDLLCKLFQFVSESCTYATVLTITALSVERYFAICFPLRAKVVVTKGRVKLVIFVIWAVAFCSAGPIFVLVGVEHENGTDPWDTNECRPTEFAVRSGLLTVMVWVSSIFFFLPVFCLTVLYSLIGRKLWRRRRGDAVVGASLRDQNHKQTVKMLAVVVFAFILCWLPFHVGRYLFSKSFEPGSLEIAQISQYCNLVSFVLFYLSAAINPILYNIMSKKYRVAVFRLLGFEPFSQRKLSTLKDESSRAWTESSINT
Ghrelin receptor, sequence (Q92847 whole entry): as above

In the case of `COc1cccc2c(C(=O)Cc3ccccc3)cn(CCCN3C4CCC3CC(CCc3ccccc3)C4)c12` (stereo not shown), in assay [1] (setting [3]), the Ki was 10 nM. Moreover, the IC50 in assay [2] ([…]) is 0.251 nM. Moreover, the Emax in assay [2] came out at 141%.
On to `COc1cccc2c(C(=O)Cc3ccccc3)cn(CCCN3C4CCC3CC(Oc3ccc(F)cc3)C4)c12` (stereo not shown), for which the Ki in assay [1] (setting [3]) is 251 nM. Besides, the IC50 in assay [2] ([…]) is 3.98 nM. In assay [2], the Emax came out at 99%.
The corresponding values for `COc1cccc2c(C(=O)c3ccccc3)cn(CCCN3CCCN(Cc4ccc(F)cc4)CC3)c12` are 10 nM, 3.98 nM and 96%.
Regarding `COc1cccc2c(C(=O)NCC(C)C)cn(CCCN3CCC(Oc4ccc(Cl)cc4)CC3)c12`, the Ki in assay [1] (setting [3]) was 50.1 nM. Also, the IC50 in assay [2] (setting [4]) is 3.98 nM. Moreover, in assay [2], the Emax was 146%.
Take `COC(=O)c1cn(CCCN2CCC(Oc3ccc(F)cc3)CC2)c2ccccc12`: the Ki in assay [1] (setting [3]) was 3160 nM. Also, the IC50 in assay [2] (setting [4]) is 2000 nM. Further, in assay [2] (setting [5]), the Emax came out at 87%.
For `COc1cccc2c(C#N)cn(CCCN3C4CCC3CC(Oc3ccc(F)cc3)C4)c12` (stereo not shown), in that order: 200 nM, 15800 nM and 107%.
For the molecule `COc1cccc2c(C#N)cn(CCCN3C4CCC3CC(CC(=O)c3ccc(Cl)cc3)C4)c12` (stereo not shown), the Ki in assay [1] (setting [3]) was 79.4 nM. In addition, the Emax in assay [2] (setting [5]) stood at 12%.
The corresponding values for `CC(=O)c1c(C)n(CCCN2C3CCC2CC(Oc2ccccc2Cl)C3)c2c(Br)cccc12` (stereo not shown) are 100 nM and 37%.
Take `COc1cccc2c(C#N)cn(CCCN3CCCC(Cc4ccccc4Cl)C3)c12` (stereo not shown): the Ki in assay [1] (setting [3]) is 200 nM. Also, the Emax in assay [2] (setting [5]) worked out at 62%.
The corresponding values for `O=C(c1cn(CCCN2C3CCC2CC(Oc2ccccc2Cl)C3)c2ncccc12)C(F)(F)F` (stereo not shown) are 251 nM and 23%.
As for `CC(=O)c1c(C)n(CCCN2CCCN(Cc3ccccc3Cl)CC2)c2c(Br)cccc12`, the Ki in assay [1] (setting [3]) is 398 nM. Moreover, in assay [2] (setting [5]), the Emax is -14%.
Take `COc1cccc2c(C(C)=O)cn(CC(C)CN3C4CCC3CC(CC(=O)c3ccc(Cl)cc3)C4)c12` (stereo not shown): the Ki in assay [1] (setting [3]) is 398 nM. Besides, the Emax in assay [2] is 16%.
For `CCc1cccc2c(C(C)=O)cn(CCCN3CCC(CCOc4ccc(Cl)cc4)CC3)c12`, in assay [1] (setting [3]), the Ki was 501 nM. Besides, the Emax in assay [2] (setting [5]) came to 76%.
As for `O=C(CC1CC2CCC(C1)N2CCCn1cc(C(=O)C(F)(F)F)c2cccnc21)c1ccc(Cl)cc1` (stereo not shown), the Ki in assay [1] (setting [3]) was 631 nM. Besides, the Emax in assay [2] (setting [5]) was found to be 10%.
For the molecule `COc1cccc2c(C(=O)NCC(C)C)cn(CCCN3CCC(c4nc5ccccc5s4)CC3)c12` [drawing 234], in assay [1] (Binding pKi), the Ki was 1000 nM. Besides, in assay [2] ([…]), the IC50 is 1.58 nM. In assay [2], the Emax was determined as 106%.
Take `CC(=O)c1cn(CCCN2C3CCC2CC(CCc2ccccc2)C3)c2ccccc12` (stereo not shown) [drawing 267]: the Ki in assay [1] (setting [3]) was 316 nM. For the same molecule, the IC50 in assay [2] (setting [4]) is 5.01 nM. Moreover, the Emax in assay [2] (setting [5]) was 105%.
As for `COc1cccc2c(C(C)=O)cn(CCCN3CCC(Oc4ccc(Cl)cc4)CC3)c12` [drawing 276], in assay [1] (setting [3]), the Ki was 200 nM. Moreover, in assay [2] ([…]), the IC50 is 5.01 nM. The Emax in assay [2] was determined as 144%.
Turning to `COc1cccc2c(C(C)=O)cn(CCCN3CCC(c4nc5ccccc5s4)CC3)c12` [drawing 280], the Ki in assay [1] (setting [3]) was 398 nM. For the same molecule, the IC50 in assay [2] (setting [4]) is 6.31 nM. For the same molecule, the “RSAT Eff(%)” value in assay [2] (setting [5]) was found to be 128%.
For `COc1cccc2c(C(C)=O)cn(CCCN3CCC(Oc4ccc(Cl)cc4)CC3)c12` [drawing 300], in that order: 126 nM, 7.94 nM and 129%.
In the case of `COc1cccc2c(C(C)=O)cn(CCCN3CCC(c4nc5ccccc5s4)CC3)c12` [drawing 310], the Ki in assay [1] (setting [3]) was 158 nM. For the same molecule, the IC50 in assay [2] ([…]) is 10 nM. Moreover, the Emax in assay [2] came to 102%.
On to `CCCOC1CCN(CCCn2cc(C(C)=O)c3cccc(OC)c32)CC1` [drawing 333], for which the Ki in assay [1] (setting [3]) is 2000 nM. Also, in assay [2] (setting [4]), the IC50 was 15.8 nM. For the same molecule, the Emax in assay [2] (setting [5]) came to 112%.
